In article PMC2990756, “Quantitative High-Throughput Screening Identifies 8-Hydroxyquinolines as Cell-Active Histone Demethylase Inhibitors” (PLoS ONE, 2010):

Tests used:
[1] = biological target: T1, JMJD2E (Homo sapiens, UniProt B2RXH2); assay: MALDI-TOF MS demethylation assay, JMJD2E; conditions: Table S1, 2 µM JMJD2E; for MALDI-TOF Data: Span: span of the fitted curve
T1 sequence (B2RXH2 1-337): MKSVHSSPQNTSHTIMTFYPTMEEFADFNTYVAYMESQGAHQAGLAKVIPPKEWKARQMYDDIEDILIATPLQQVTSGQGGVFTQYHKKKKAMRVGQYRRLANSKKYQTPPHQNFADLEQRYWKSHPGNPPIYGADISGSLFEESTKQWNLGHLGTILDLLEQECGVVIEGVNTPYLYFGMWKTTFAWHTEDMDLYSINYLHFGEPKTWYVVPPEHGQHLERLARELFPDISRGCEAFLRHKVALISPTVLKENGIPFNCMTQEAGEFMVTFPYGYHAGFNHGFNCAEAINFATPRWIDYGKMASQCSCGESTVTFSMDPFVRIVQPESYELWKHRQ
Experimental: Initially, JMJD2, Fe(II), ascorbate and inhibitors were pre-incubated for 15 min prior to the addition of peptide and 2OG. The reaction was incubated for 30 min before 1∶1 quenching with methanol followed by addition of four volumes of 20 mM triammonium citrate. […] The diluted assay mixture (1 µL) from JMJD2 and PHD2 assays were mixed with 1 µL of α-cyano-4-hydroxycinnamic acid and 1 µL of FIH assay mixture was mixed with 1 µL of sinapinic acid matrix, and assessed by matrix-assisted laser desorption/ionization-time of flight (MALDI-TOF).

[2] = biological target: T1, JMJD2E; assay: JMJD2E FDH-coupled assay under low and high iron conditions (iron chelation profile); type: biochemical; parameters: The catalytic domain of human JMJD2E (residues 1–337); His6 (N); made in house; host or cells: E. coli; conditions: Table S1; for IC50: unit not in table, from Figure 2
Experimental: The prioritized compounds were also evaluated in the screening assay using two different ferrous ion concentrations (termed high iron and low iron, respectively), in order to assess their propensity for iron chelation.
The ratio of IC50 values under high iron to low iron was calculated for each compound.

[3] = biological target: T2, formaldehyde dehydrogenase (FDH) (Pseudomonas putida, UniProt P46154); assay: FDH coupling enzyme counterscreen; type: biochemical; conditions: Table S1, FDH counterscreen; for IC50: unit not in table, from Figure 2, read-out: qHTS Data: jmjd2e fdh IC50
T2 construct: purchased Sigma-Aldrich
Text: Dimethylsulfoxide certified ACS grade (DMSO) was from Fisher, Inc. HEPES buffer was obtained from Gibco. […] Black solid-bottom 1,536-well assay plates were from Greiner Bio-One (Monroe, NC).

[4] = biological target: T3, JMJD2E (KDM4E) (Homo sapiens, UniProt B2RXH2); assay: qHTS fluorescence FDH-coupled JMJD2E demethylase assay; type: biochemical; conditions: Table S1; unit not in table, from Figure 2; read-out: qHTS Data: jmjd2e IC50
T3 construct: The catalytic domain of human JMJD2E (residues 1–337); His6 (N); made in house; host or cells: E. coli
T3 sequence (B2RXH2 1-337): T1 sequence (B2RXH2 1-337)
Text: The oxidation of formaldehyde is coupled to the reduction of NAD^+ to NADH, which is monitored by fluorescence spectroscopy. […] To this end, initial screening hits were filtered by a combination of cheminformatics (to exclude low-confidence inhibitors and autofluorescent false positives), counterscreening against the coupled-assay component formaldehyde dehydrogenase (FDH), and orthogonal direct detection of inhibition of demethylation by mass spectrometry ( Figure 1 ).
Reactions were initiated with 1 µL addition of peptide substrate solution containing final concentrations of 10 µM FAS, 50 µM 2OG, 0.25 U/mL FDH, 0.25 mM NAD^+, and 50 µM peptide substrate (ARK(me3)STGGK). A ViewLux imager (PerkinElmer, Waltham, MA) was used to measure NADH fluorescence (λex 340 nm, λem 450 nm) immediately after substrate addition and following 30 min incubation at room temperature. To record any systematic drifts in assay behavior (signal window and noise), assay plates containing no library compounds but only DMSO as a vehicle control were tested periodically (every ∼60 plates) throughout the screen.
Data were normalized to the basal response (0% activity) in the absence of enzyme and the maximal response (100% activity) in the absence of compound. Using the Hill equation, dose-response curves and IC50 values were automatically generated for each compound tested with software developed internally (www.ncgc.nih.gov/pub/openhts/curvefit/). […] The initial well fluorescence (first kinetic read) associated with each sample was stored in a database and used in the cheminformatics analysis to identify autofluorescent compounds interfering with the assay signal.

[5] = high iron, head says 20 µM FAS, read-out: qHTS Data: jmjd2e fas20um IC50
[6] = low iron 2.5 µM FAS, read-out: qHTS Data: jmjd2e fas2.5um IC50

T2 sequence (P46154 whole entry): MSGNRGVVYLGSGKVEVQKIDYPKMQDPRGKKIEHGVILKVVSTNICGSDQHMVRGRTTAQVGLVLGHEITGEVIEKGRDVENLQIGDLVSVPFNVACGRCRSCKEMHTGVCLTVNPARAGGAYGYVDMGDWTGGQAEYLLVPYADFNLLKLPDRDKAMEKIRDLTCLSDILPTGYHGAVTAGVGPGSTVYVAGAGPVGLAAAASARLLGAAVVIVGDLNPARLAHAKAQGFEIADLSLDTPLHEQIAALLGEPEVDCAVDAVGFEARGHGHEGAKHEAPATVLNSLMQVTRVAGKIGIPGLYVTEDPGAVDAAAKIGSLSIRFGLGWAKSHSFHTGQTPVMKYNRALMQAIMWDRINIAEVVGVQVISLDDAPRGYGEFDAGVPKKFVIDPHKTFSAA

Compound | MALDI-TOF Data: Span [1] | qHTS Data: jmjd2e fas20um CurveClass ([2]; high iron) | qHTS Data: jmjd2e fdh CurveClass [3] | IC50 [4] | IC50 [2, 5] | IC50 [2, 6] | IC50 [3] | qHTS Data: jmjd2e fas2.5um Curve comment ([2]; low iron 2.5 µM FAS) | IC50 ([1]; read-out: MALDI-TOF Data: IC50, unit not in table, ~ values are poorly fitted)
O=c1c(O)c(-c2cc(O)c(O)c(O)c2)oc2cc(O)cc(O)c12 [compound 11111488] | 95.03 | Poor quality curve | Inactive |  |  |  |  |  | 
Cl.NCCc1cc(O)c(O)cc1O [compound 26748180] |  |  | Poor quality curve | 6.31 µM | 7.94 µM | 2.51 µM |  |  | 
CN(C)C1C(=O)C(C(N)=O)=C(O)[C@@]2(O)C(=O)C3=C(O)c4c(O)cccc4[C@@](C)(O)C3CC12.Cl (some centres unmarked) [compound 26748266] |  |  | Poor quality curve | 2.51 µM | 1.78 µM | 15.8 µM | 15.8 µM |  | 
C=C1c2cccc(O)c2C(O)=C2C(=O)[C@]3(O)C(O)=C(C(N)=O)C(=O)C(N(C)C)C3C(O)C12.Cl (some centres unmarked) [compound 26748477] |  | Poor quality curve | Inactive | 8.91 µM | 2.51 µM | 12.6 µM |  |  | 
O=C(OCC1OC(OC(=O)c2cc(O)c(O)c(OC(=O)c3cc(O)c(O)c(O)c3)c2)[C@@H](OC(=O)c2cc(O)c(O)c(OC(=O)c3cc(O)c(O)c(O)c3)c2)C(OC(=O)c2cc(O)c(O)c(OC(=O)c3cc(O)c(O)c(O)c3)c2)C1OC(=O)c1cc(O)c(O)c(OC(=O)c2cc(O)c(O)c(O)c2)c1)c1cc(O)c(O)c(OC(=O)c2cc(O)c(O)c(O)c2)c1 (some centres unmarked) [compound 26748902] |  |  |  | 0.28 µM | 15.8 µM | 0.16 µM | 7.94 µM |  | 
CCc1ccc2c(O)c3c(cc2c1C(=O)OC)C(=O)c1c(O)ccc(O)c1C3=O [compound 26749155] |  |  | Poor quality curve | 2.82 µM | 11.2 µM | 3.98 µM | 3.16 µM |  | 
O=C1C=CC(=O)c2c(O)cccc21 [compound 26749198] |  |  | Inactive | 7.08 µM | 14.1 µM | 5.01 µM |  |  | 
O=C1c2ccc(O)c(O)c2C(=O)c2c(O)ccc(O)c21 [compound 26749241] |  |  | Inactive | 3.55 µM | 15.8 µM | 2.51 µM |  |  | 
Oc1cc2c(cc1O)C1c3ccc(O)c(O)c3OCC1(O)C2 (centres unmarked) [compound 26749470] |  | Poor quality curve | Inactive | 0.71 µM | 14.1 µM | 1.58 µM |  |  | 
O=c1c(-c2cc(O)c(O)c(O)c2)coc2cc(O)c(O)c(O)c12 [compound 26749510] |  |  |  | 2.82 µM | 14.1 µM | 1 µM | 3.98 µM |  | 
CCOc1cccc(C(=O)c2ccc(O)c(O)c2O)c1 [compound 26749554] |  |  | Inactive | 10 µM | 8.91 µM | 4.47 µM |  |  | 
O=C1C=CC2=C3c4cc(O)c(O)cc4CC3(O)COC2=C1O (centres unmarked) [compound 26749676] |  | Poor quality curve |  | 6.31 µM | 17.8 µM | 2 µM | 11.2 µM |  | 
O=C(OC1Cc2c(O)cc(O)cc2OC1c1cc(O)c(O)c(O)c1)c1cc(O)c(O)c(O)c1 (centres unmarked) [compound 26749738] |  |  | Poor quality curve | 2.51 µM | 7.08 µM | 1.41 µM | 14.1 µM |  | 
COc1cccc(O)c1O [compound 26749778] |  |  | Inactive | 7.94 µM | 15.8 µM | 4.47 µM |  |  | 
COC(=O)c1cc(=O)c(O)c2c(O)c(O)ccc2c1 [compound 26749939] |  |  | Inactive | 8.91 µM | 22.4 µM | 7.94 µM |  |  | 
O=c1c(O)c(-c2ccc(O)c(O)c2)oc2c(O)c(O)cc(O)c12 [compound 26750048] |  | Inactive | Inactive | 2.82 µM |  | 1.41 µM |  |  | 
CNC[C@H](O)c1ccc(O)c(O)c1 [compound 26754418] |  |  | Inconclusive | 7.08 µM | 12.6 µM | 5.01 µM |  |  | 
Oc1ccccc1O [compound 50105556] |  | Poor quality curve | Inactive | 14.1 µM | 14.1 µM | 10 µM |  |  | 
NCC(O)c1ccc(O)c(O)c1.O=C(O)C(O)C(O)C(=O)O (centres unmarked) [compound 50105780] |  |  | Inactive | 12.6 µM | 2 µM | 4.47 µM |  |  | 
Cl.Nc1ccn([C@@H]2O[C@H](CO)[C@@H](O)[C@@H]2O)c(=O)n1 [compound 50106080] |  |  | Inactive | 0.89 µM | 7.94 µM |  |  | Inactive | 
CNCCc1ccc(O)c(O)c1.Cl [compound 50106160] |  |  | Poor quality curve | 14.1 µM | 11.2 µM | 4.47 µM | 3.16 µM |  | 
N[C@H](Cc1ccc(O)c(O)c1)C(=O)O [compound 50106235] |  |  | Inactive | 17.8 µM | 12.6 µM | 12.6 µM |  |  | 
CN[C@@H](C)[C@H](O)c1ccccc1.CN[C@@H](C)[C@H](O)c1ccccc1.O=S(=O)(O)O [compound 50106282] |  | 1.2 | Poor quality curve | 3.55 µM | 7.94 µM | 2.24 µM | 12.6 µM |  | 
Cl.NCCc1ccc(O)c(O)c1 [compound 50106387] |  |  | Inactive | 12.6 µM | 3.98 µM | 11.2 µM |  |  | 
CC1(C)CCC2=C(O1)c1ccccc1C(=O)C2=O [compound 50106535] | 91.75 |  |  | 3.55 µM |  |  |  |  | 28.6 µM
CC(C)C1C(=O)C(C(N)=O)=C(O)[C@@]2(O)C(=O)C3=C(O)c4c(O)ccc(N(C)C)c4C[C@H]3C[C@@H]12.Cl (some centres unmarked) [compound 50106632] |  | Poor quality curve | Inactive | 10 µM | 12.6 µM | 12.6 µM |  |  | 
CN(N=O)c1ccc(O)c(O)c1 [compound 50106719] |  | Inactive | Poor quality curve | 10 µM |  | 7.94 µM | 31.6 µM |  | 
Cc1nc(-c2coc3c(O)c(O)ccc3c2=O)cs1 [compound 50110018] |  |  | Poor quality curve | 7.08 µM | 15.8 µM | 7.08 µM | 17.8 µM |  | 
O=c1c(O)c(Br)ccc2c(Br)c(O)c(O)c(O)c12 [compound 50110019] |  | Inconclusive | Poor quality curve | 7.08 µM |  | 5.01 µM | 28.2 µM |  | 
